Data published in PubChem BioAssay AID330 (DTP/NCI, 2004).
Several values for one entry are separate records, joined by “and”; a condition that tells them apart may be missing. Equal entries are not always repeated. Toxic doses and inconclusive results are not listed. How the source made its calls: active means survival T/C of 150% or more; inactive means T/C below 125% in these data.

Tested on: P388 leukemia ip, CD2F1 mice, survival T/C
Experiment: NCI In Vivo Anticancer Drug Screen. Data for tumor model P388 Leukemia (intraperitoneal) in CD2F1 (CDF1) mice
Conditions: endpoint: median survival time, higher = longer survival
Method in brief: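 Mice carrying the transplanted tumor received test compound or vehicle. Survival was recorded in each group, and the value is the treated-group measurement divided by that of the vehicle-treated control group.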

[1] = dose: 60.0 mg/kg/injection, schedule: Q01DX005 (ip), vehicle: saline
[2] = dose: 120.0 mg/kg/injection, schedule: Q01DX005 (ip), vehicle: saline
[3] = dose: 240.0 mg/kg/injection, schedule: Q01DX005 (ip), vehicle: saline
[4] = dose: 60.0 mg/kg/injection, schedule: Q01DX005 (ip), vehicle: saline with Tween-80
[5] = dose: 120.0 mg/kg/injection, schedule: Q01DX005 (ip), vehicle: saline with Tween-80
[6] = dose: 100.0 mg/kg/injection, schedule: Q01DX009 (ip), vehicle: saline with Tween-80
[7] = dose: 1.56 mg/kg/injection, schedule: Q01DX009 (ip), vehicle: saline

Measured: T/C

Oc1[nH]c2ccccc2c1N=NC1=NCCN1
inactive: [1] 101 % of control | [2] 104 % of control | [3] 87 % of control

CC(C)(C)c1cc(C(=O)O)c2soc(=O)c2c1
inactive: dose: 50.0 mg/kg/injection, schedule: Q01DX009 (ip), vehicle: Klucel (hydroxypropylcellulose) (HPC) 106 % of control | dose: 100.0 mg/kg/injection, schedule: Q01DX009 (ip), vehicle: Klucel (hydroxypropylcellulose) (HPC) 109 % of control | dose: 200.0 mg/kg/injection, schedule: Q01DX009 (ip), vehicle: Klucel (hydroxypropylcellulose) (HPC) 111 % of control

CCOc1ccc(/C=N/NC(=O)c2c(-c3ccccc3)noc2C)cc1
inactive: dose: 50.0 mg/kg/injection, schedule: Q01DX005 (ip), vehicle: saline with Tween-80 86 % of control | dose: 100.0 mg/kg/injection, schedule: Q01DX005 (ip), vehicle: saline with Tween-80 91 % of control | dose: 200.0 mg/kg/injection, schedule: Q01DX005 (ip), vehicle: saline with Tween-80 97 % of control

COc1ccc(C2C3=C(CC(C)(C)CC3=O)Oc3cc4c(cc32)OCO4)cc1 (configuration not stated)
inactive: [4] 93 % of control | [5] 96 % of control

Nc1ccccc1C(=O)Nc1ccccc1
inactive: [6] 88 % of control

C[N+](C)(C)N=P(O)(N[N+](C)(C)C)c1ccccc1 (configuration not stated)
inactive: [1] 104 % of control | [2] 104 % of control | [3] 103 % of control

CC(C)(C(=O)O)C(C)(C)C(=O)O
inactive: dose: 1.56 mg/kg/injection, schedule: Q01DX001 (ip), vehicle: saline 102 % of control | dose: 3.12 mg/kg/injection, schedule: Q01DX001 (ip), vehicle: saline 101 % of control

CC(CO)CCC1OC2CC3C4CC=C5C=CCCC5(C)C4CCC3(C)C2C1C (configuration not stated)
inactive: dose: 2.25 mg/kg/injection, schedule: Q01DX005 (ip), vehicle: Klucel (hydroxypropylcellulose) (HPC) 107 % of control | dose: 4.5 mg/kg/injection, schedule: Q01DX005 (ip), vehicle: Klucel (hydroxypropylcellulose) (HPC) 104 % of control | dose: 9.0 mg/kg/injection, schedule: Q01DX005 (ip), vehicle: Klucel (hydroxypropylcellulose) (HPC) 97 % of control | dose: 18.0 mg/kg/injection, schedule: Q01DX005 (ip), vehicle: Klucel (hydroxypropylcellulose) (HPC) 96 % of control | dose: 36.0 mg/kg/injection, schedule: Q01DX005 (ip), vehicle: Klucel (hydroxypropylcellulose) (HPC) 124 % of control

Cc1ccc(S(=O)(=O)N/N=C/c2ccc(N(C)C)cc2)cc1
inactive: dose: 12.5 mg/kg/injection, schedule: Q01DX009 (ip), vehicle: other 113 % of control | dose: 25.0 mg/kg/injection, schedule: Q01DX009 (ip), vehicle: other 96 % of control | dose: 50.0 mg/kg/injection, schedule: Q01DX009 (ip), vehicle: other 109 % of control | dose: 100.0 mg/kg/injection, schedule: Q01DX009 (ip), vehicle: other 100 % of control | dose: 200.0 mg/kg/injection, schedule: Q01DX009 (ip), vehicle: other 106 % of control | dose: 400.0 mg/kg/injection, schedule: Q01DX009 (ip), vehicle: other 100 % of control

CCOC(=O)c1c[nH]c2cc(Cl)ccc2c1=O
inactive: dose: 50.0 mg/kg/injection, schedule: Q01DX009 (ip), vehicle: saline with Tween-80 93 % of control | [6] 98 % of control | dose: 200.0 mg/kg/injection, schedule: Q01DX009 (ip), vehicle: saline with Tween-80 93 % of control

CCOC(=O)NC(NC(=O)OCC)c1ccncc1
inactive: dose: 100.0 mg/kg/injection, schedule: Q04DX003 (ip), vehicle: saline 94 % of control | dose: 200.0 mg/kg/injection, schedule: Q04DX003 (ip), vehicle: saline 98 % of control | dose: 400.0 mg/kg/injection, schedule: Q04DX003 (ip), vehicle: saline 99 % of control

CN(C)CC(CN(C)C)C(=O)c1ccc(Oc2ccc(Cl)c(Cl)c2)cc1
inactive: dose: 1.88 mg/kg/injection, schedule: Q01DX005 (ip), vehicle: saline 107 % of control | dose: 3.75 mg/kg/injection, schedule: Q01DX005 (ip), vehicle: saline 109 % of control | dose: 7.5 mg/kg/injection, schedule: Q01DX005 (ip), vehicle: saline 117 % of control

C[n+]1c(/C=C2/SC=C(c3ccccc3)S2)ccc2ccccc21
inactive: dose: 0.78 mg/kg/injection, schedule: Q04DX002 (ip), vehicle: saline with Tween-80 102 % of control and 119 % of control | dose: 1.56 mg/kg/injection, schedule: Q04DX002 (ip), vehicle: saline with Tween-80 109 % of control and 123 % of control | dose: 3.12 mg/kg/injection, schedule: Q04DX002 (ip), vehicle: saline with Tween-80 119 % of control

C=CCC12C[C@H](OC)[C@@H](O)[C@](OC)(C1O)[C@H](c1ccc3c(c1)OCO3)[C@H]2C (some centres not stated)
inactive: dose: 16.25 mg/kg/injection, schedule: Q01DX005 (ip), vehicle: Klucel (hydroxypropylcellulose) (HPC) 108 % of control | dose: 32.5 mg/kg/injection, schedule: Q01DX005 (ip), vehicle: Klucel (hydroxypropylcellulose) (HPC) 98 % of control | dose: 65.0 mg/kg/injection, schedule: Q01DX005 (ip), vehicle: Klucel (hydroxypropylcellulose) (HPC) 99 % of control | dose: 130.0 mg/kg/injection, schedule: Q01DX005 (ip), vehicle: Klucel (hydroxypropylcellulose) (HPC) 89 % of control

CC(=O)C1(C(C)=O)OC2c3ccccc3C=CN2C=C1C=O (configuration not stated)
inactive: [4] 110 % of control | [5] 106 % of control | dose: 240.0 mg/kg/injection, schedule: Q01DX005 (ip), vehicle: saline with Tween-80 106 % of control

C[N+](C)(C)CCOS(C)(=O)=O
inactive: dose: 1.56 mg/kg/injection, schedule: Q01DX009 (ip), vehicle: Klucel (hydroxypropylcellulose) (HPC) 90 % of control and 93 % of control | [7] 101 % of control | dose: 3.13 mg/kg/injection, schedule: Q01DX009 (ip), vehicle: Klucel (hydroxypropylcellulose) (HPC) 99 % of control | dose: 3.13 mg/kg/injection, schedule: Q01DX009 (ip), vehicle: saline 111 % of control and 95 % of control | dose: 6.25 mg/kg/injection, schedule: Q01DX009 (ip), vehicle: Klucel (hydroxypropylcellulose) (HPC) 89 % of control (2×) and 94 % of control | dose: 6.25 mg/kg/injection, schedule: Q01DX009 (ip), vehicle: saline 90 % of control | dose: 12.5 mg/kg/injection, schedule: Q01DX009 (ip), vehicle: saline 92 % of control

CCCCCCCCCCCCCCCCCC[N+]1(CC)CCOCC1
inactive: dose: 0.78 mg/kg/injection, schedule: Q01DX009 (ip), vehicle: saline 87 % of control and 90 % of control | [7] 106 % of control and 87 % of control and 88 % of control | dose: 3.12 mg/kg/injection, schedule: Q01DX009 (ip), vehicle: saline 111 % of control and 87 % of control and 88 % of control | dose: 25.0 mg/kg/injection, schedule: Q01DX009 (ip), vehicle: saline 86 % of control | dose: 50.0 mg/kg/injection, schedule: Q01DX009 (ip), vehicle: saline 96 % of control | dose: 100.0 mg/kg/injection, schedule: Q01DX009 (ip), vehicle: saline 88 % of control | dose: 200.0 mg/kg/injection, schedule: Q01DX009 (ip), vehicle: saline 100 % of control

Cc1ccc(S(=O)(=O)c2cnc(N3CCN(C)CC3)nc2N)cc1
inactive: dose: 100.0 mg/kg/injection, schedule: Q04DX002 (ip), vehicle: saline 100 % of control | dose: 200.0 mg/kg/injection, schedule: Q04DX002 (ip), vehicle: saline 100 % of control | dose: 400.0 mg/kg/injection, schedule: Q04DX002 (ip), vehicle: saline 93 % of control

O=c1oc2nc(-c3ccccc3)[nH]c(=O)c2c(O)c1Cc1ccccc1
inactive: dose: 15.0 mg/kg/injection, schedule: Q01DX005 (ip), vehicle: Klucel (hydroxypropylcellulose) (HPC) 97 % of control | dose: 30.0 mg/kg/injection, schedule: Q01DX005 (ip), vehicle: Klucel (hydroxypropylcellulose) (HPC) 98 % of control | dose: 60.0 mg/kg/injection, schedule: Q01DX005 (ip), vehicle: Klucel (hydroxypropylcellulose) (HPC) 95 % of control and 96 % of control
